Assay results taken from patent EP1792902A1, “Processes for preparation of 5-(6-quinazolinyl)-furan-2-carbaldehydes” (priority 2000, dated 2002).

What was measured:
[1] = target: EGFr isolated from solubilised A431 cell membranes (Homo sapiens, UniProt P00533); assay: Substrate phosphorylation assay, EGFR tyrosine kinase inhibition; format: biochemical; details: tested in buffered solution
From the text: (§1) The substrate phosphorylation assays use baculovirus expressed, recombinant constructs of the intracellular domains of c-erbB-2 and c-erbB-4 that are constitutively active and EGFr isolated from solubilised A431 cell membranes. The method measures the ability of the isolated enzymes to catalyse the transfer of the g-phosphate from ATP onto tyrosine residues in a biotinylated synthetic peptide (Biotin-[…]. Substrate phosphorylation was detected following either of the following two procedures: • a.) c-ErbB-2, c-ErbB4 or EGFr were incubated for 30 minutes, at room temperature, with 10mM MnCl2, […], and test compound (diluted from a 5mM stock in DMSO, final DMSO concentration is 2%) in 40mM HEPES buffer, pH 7.4. The reaction was stopped by the addition of EDTA (final concentration 0.15mM) and a sample was transferred to a streptavidin-coated 96-well plate. The plate was washed and the level of phosphotyrosine on the peptide was determined using a Europium-labelled antiphosphotyrosine antibody and quantified with a time-resolved fluorescence technique. • b.) ErbB2 was incubated for 50 minutes at room temperature with 15 mM MnCl2, 2 mM ATP, 0.25 mCi [g-^33P] […] The SPA signal was measured using a Packard Topcount 96-well plate scintillation counter (Packard Instrument Co., Meriden, CT).

[2] = target: T1, c-erbB-2 (Homo sapiens, UniProt P04626); assay: Substrate phosphorylation assay, erbB2 tyrosine kinase inhibition; format: biochemical; details: tested in buffered solution
T1 construct: recombinant constructs of the intracellular domains of c-erbB-2 and c-erbB-4 that are constitutively active; made in house
T1 sequence (P04626 676-1255 limits assumed): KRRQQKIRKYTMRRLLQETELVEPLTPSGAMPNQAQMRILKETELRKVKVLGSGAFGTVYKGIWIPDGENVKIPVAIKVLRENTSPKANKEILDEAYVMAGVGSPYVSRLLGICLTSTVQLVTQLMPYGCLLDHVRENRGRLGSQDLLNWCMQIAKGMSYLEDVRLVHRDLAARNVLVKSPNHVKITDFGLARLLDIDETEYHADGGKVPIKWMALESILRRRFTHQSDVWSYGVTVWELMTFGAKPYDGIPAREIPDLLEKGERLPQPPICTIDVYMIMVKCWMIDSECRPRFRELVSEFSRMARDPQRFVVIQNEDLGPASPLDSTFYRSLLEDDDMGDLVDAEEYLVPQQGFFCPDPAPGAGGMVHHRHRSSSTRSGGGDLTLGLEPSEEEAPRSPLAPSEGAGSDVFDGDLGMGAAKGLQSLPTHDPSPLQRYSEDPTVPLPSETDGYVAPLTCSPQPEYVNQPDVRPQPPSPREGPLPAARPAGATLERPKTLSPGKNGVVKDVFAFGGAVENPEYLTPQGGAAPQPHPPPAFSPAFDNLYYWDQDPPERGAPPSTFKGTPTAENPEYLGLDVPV
From the text: as §1

[3] = target: T2, c-erbB-4 (Homo sapiens, UniProt Q15303); assay: Substrate phosphorylation assay, erbB4 tyrosine kinase inhibition; format: biochemical; details: tested in buffered solution
T2 construct: recombinant constructs of the intracellular domains of c-erbB-2 and c-erbB-4 that are constitutively active; made in house
T2 sequence (Q15303 676-1308 limits assumed): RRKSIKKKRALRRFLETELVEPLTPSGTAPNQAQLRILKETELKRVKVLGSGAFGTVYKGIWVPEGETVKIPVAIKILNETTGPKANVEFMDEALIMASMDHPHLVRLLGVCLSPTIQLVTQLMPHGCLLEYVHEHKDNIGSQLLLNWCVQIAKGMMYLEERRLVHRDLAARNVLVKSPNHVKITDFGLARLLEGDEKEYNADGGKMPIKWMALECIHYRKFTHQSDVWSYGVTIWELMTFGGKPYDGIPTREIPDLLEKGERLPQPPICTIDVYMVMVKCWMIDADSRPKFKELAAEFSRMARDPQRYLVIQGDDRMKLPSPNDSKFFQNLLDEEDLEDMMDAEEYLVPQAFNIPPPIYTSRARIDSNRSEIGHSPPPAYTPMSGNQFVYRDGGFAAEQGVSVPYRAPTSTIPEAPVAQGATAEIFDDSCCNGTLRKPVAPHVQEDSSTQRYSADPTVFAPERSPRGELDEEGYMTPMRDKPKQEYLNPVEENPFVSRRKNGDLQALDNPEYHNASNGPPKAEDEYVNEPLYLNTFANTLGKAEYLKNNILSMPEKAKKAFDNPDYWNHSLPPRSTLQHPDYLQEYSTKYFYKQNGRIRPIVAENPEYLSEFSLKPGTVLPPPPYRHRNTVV
From the text: as §1

[4] = tested on: gastric tumor (N87) cell lines; assay: Methylene Blue Growth Inhibition Assay, N87; format: cell-based; details: Homo sapiens, 72 h; 3 days incubation, methylene blue staining
Method: (§2) Human breast (BT474), head and neck (HN5) and gastric tumor (N87) cell lines and human foreskin Fibroblasts (HFF) were cultured in low glucose DMEM (Life Technologies 12320-032) containing 10% fetal bovine serum (FBS) at 37°C in a humidified 10% CO2, 90% air incubator. The SV40 transformed human mammary epithelial cell line HB4a was transfected with either human H-ras cDNA (HB4a r4.2) or the human c-erbB2 cDNA (HB4a c5.2). The HB4a clones were cultured in RPMI containing 10% FBS, insulin (5 µg/ml), hydrocortisone (5 µg/ml), supplemented with the selection agent hygromycin B (50µg/ml). Cells were harvested using trypsin/EDTA, counted using a haemocytometer, and plated in […] of the appropriate media, at the following densities, in a 96-well tissue culture plate (Falcon 3075): BT474 10,000 cells/well, HN5 3,000 cells/well, N87 10,000 cells/well, HB4a c5.2 3,000 cells/well, HB4a r4.2 3,000 cells/well, HFF 2500 cells/well. The next day, compounds were diluted in DMEM containing […] gentamicin, at twice the final required concentration, from 10mM stock solutions in DMSO. […]/well of these dilutions were added to the 100ml of media currently on the cell plates. Medium containing 0.6% DMSO was added to control wells. Compounds diluted in DMEM were added to all cell lines, including the HB4a r4.2 and HB4a c5.2 cell lines. The final concentration of DMSO in all wells was 0.3%. Cells were incubated at 37°C, 10% CO2 for 3 days. Medium was removed by aspiration. Cell biomass was estimated by staining cells with 100µl per well methylene blue (Sigma M9140, 0.5% in 50:50 ethanol:water), and incubation at room temperature for at least 30 minutes. Stain was removed, and the plates rinsed under a gentle stream of water, and air-dried. To release stain from the cells 100µl of solubilization solution was added (1% N-lauroyl sarcosine, Sodium salt, Sigma L5125, in PBS), and plates were shaken gently for about 30 minutes. Optical density at 620 nm was measured on a microplate reader. Percent inhibition of cell growth was calculated relative to vehicle treated control wells. […]

[5] = tested on: breast (BT474); assay: Methylene Blue Growth Inhibition Assay, BT474; format: cell-based; details: Homo sapiens, BT-474, 72 h; 3 days incubation, methylene blue staining; read-out: BT474 IC50 uM Cell
Method: as §2

[6] = tested on: head and neck (HN5); assay: Methylene Blue Growth Inhibition Assay, HN5; format: cell-based; details: Homo sapiens, 72 h; 3 days incubation, methylene blue staining; read-out: HN5 IC50 uM Cell
Method: as §2

[7] = Slurry equilibration method, relative physical stability of anhydrate and monohydrate crystal forms; details: for Equilibrium Form: 25°C, pXRD
[8] = Moisture sorption testing; format: physicochemical; details: at the humidities to which it might be exposed (e.g., 20-75% relative humidity (RH))
Method: Approximately 12 mg of N-{3-Chloro-4-[(3-fluorobenzyl) oxy]phenyl}-6-[5-({[2-(methanesulphonyl)ethyl] amino}methyl)-2-furyl]-4-quinazolinamine ditosylate monohydrate salt prepared according to Example 10 was weighed into a sample pan of a moisture sorption apparatus (model number SGA-100, made by VTI). The sample was dried at 60°C under a nitrogen stream until the weight loss was less than 0.015% in 5 minutes. The relative humidity (RH) was then increased (adsorption) to 5, 15, 25, 35, 45, 55, 65, 75, 85 and 95% - at each step, equilibrium was defined as a weight change of less than 0.015% in 5 minutes. The relative humidity was then decreased (desorption) to 90, 80, 70, 60, 50, 40, 30, and 20% with the same equilibrium condition. The sorption curve (y-axis: Weight - % change vs. x-axis: % RH) is depicted in Figure 3(a).
Approximately 15 mg of N-{3-Chloro-4-[(3-fluorobenzyl) oxy]phenyl}-6-[5-({[2-(methanesulphonyl)ethyl]amino}methyl)-2-furyl]-4-quinazolinamine di-HCl salt was weighed into a sample pan of a moisture sorption apparatus (model number SGA-100 , made by VTI). The sample was dried at 60°C under a nitrogen stream until the weight loss was less than 0.015% in 5 minutes. The relative humidity was then increased (adsorption) to 5, 15, 25, 35, 45, 55, 65, 75, 85 and 95% - at each step, equilibrium was defined as a weight change of less than 0.015% in 5 minutes. […]

EGFr isolated from solubilised A431 cell membranes, sequence (P00533 25-1210): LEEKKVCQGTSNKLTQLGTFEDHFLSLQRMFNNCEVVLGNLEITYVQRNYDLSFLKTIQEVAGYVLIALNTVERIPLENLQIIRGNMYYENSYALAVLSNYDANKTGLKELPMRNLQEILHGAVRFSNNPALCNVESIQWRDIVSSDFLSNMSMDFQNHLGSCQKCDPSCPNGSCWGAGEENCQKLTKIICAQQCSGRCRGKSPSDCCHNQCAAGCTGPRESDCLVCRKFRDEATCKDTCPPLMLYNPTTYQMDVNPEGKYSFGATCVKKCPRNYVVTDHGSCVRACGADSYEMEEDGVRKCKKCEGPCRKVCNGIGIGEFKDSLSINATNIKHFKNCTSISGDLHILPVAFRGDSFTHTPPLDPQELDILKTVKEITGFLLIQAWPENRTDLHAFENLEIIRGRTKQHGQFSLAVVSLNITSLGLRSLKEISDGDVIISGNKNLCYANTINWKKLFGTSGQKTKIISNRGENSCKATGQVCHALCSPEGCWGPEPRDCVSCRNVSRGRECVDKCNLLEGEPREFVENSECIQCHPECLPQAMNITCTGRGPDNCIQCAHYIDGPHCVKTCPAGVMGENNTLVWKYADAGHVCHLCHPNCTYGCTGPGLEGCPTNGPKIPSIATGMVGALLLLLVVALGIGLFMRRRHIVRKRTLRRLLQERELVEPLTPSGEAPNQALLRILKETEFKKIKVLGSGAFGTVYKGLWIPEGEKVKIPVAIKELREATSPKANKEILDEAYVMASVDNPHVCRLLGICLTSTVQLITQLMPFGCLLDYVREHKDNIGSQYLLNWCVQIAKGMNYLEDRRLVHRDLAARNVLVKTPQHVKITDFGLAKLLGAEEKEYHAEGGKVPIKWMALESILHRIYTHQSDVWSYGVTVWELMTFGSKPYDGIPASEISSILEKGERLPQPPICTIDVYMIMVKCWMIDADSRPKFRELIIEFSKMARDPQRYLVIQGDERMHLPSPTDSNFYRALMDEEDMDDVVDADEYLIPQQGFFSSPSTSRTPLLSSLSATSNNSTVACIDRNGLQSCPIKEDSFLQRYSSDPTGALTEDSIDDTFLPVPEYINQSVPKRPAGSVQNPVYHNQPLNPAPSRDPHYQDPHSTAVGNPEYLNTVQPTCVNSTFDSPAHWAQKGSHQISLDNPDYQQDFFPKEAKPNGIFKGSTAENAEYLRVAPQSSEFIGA

SMILES | IC50 [1] [µM] | IC50 [2] [µM] | IC50 [3] [µM] | IC50 [4] [µM] | IC50 [5] [µM] | IC50 [6] [µM] | other results
CS(=O)(=O)CCNCc1nc(-c2ccc3ncnc(Nc4ccc(OCc5cccc(F)c5)c(Cl)c4)c3c2)cs1 [Example 13, (4-(3-Fluoro-benzyloxy)-3-chlorophenyl)-(6-(2-((2-methanesulphonyl-ethylamino)-methyl)-thiazol-4-yl)quinazolin-4-yl)-amine ditosylate] | < 0.1 | < 0.1 | 0.1 to 1 | < 5 | < 5 | < 5 | 
CS(=O)(=O)CCNCc1ccc(-c2ccc3ncnc(Nc4ccc(OCc5cccc(F)c5)c(Cl)c4)c3c2)o1 [Example 8, N-{3-Chloro-4-[(3-fluorobenzyl)oxy]phenyl}-6-[5({[2-(methanesulphonyl)ethyl]amino}methyl)-2-furyl]-4-quinazolinamine ditosylate anhydrate] |  |  |  | < 5 | < 5 | < 5 | 
CS(=O)(=O)CCNCc1ccc(-c2ccc3ncnc(Nc4ccc(OCc5cccc(F)c5)c(Cl)c4)c3c2)o1.Cc1ccc(S(=O)(=O)O)cc1.Cc1ccc(S(=O)(=O)O)cc1 [N-{3-Chloro-4-[(3-fluorobenzyl)oxy]phenyl}-6-[5-({[2-(methanesulphonyl)ethyl]amino}methyl)-2-furyl]-4-quinazolinamine ditosylate] |  |  |  |  |  |  | Equilibrium Form ([7]; RH 0 %, Water Volume 0 %, Water Mole Fraction 0.00, 1:1 anhydrate/monohydrate slurry in MeOH/H2O): Anhydrate; Equilibrium Form ([7]; RH 7 %, Water Volume 2 %, Water Mole Fraction 0.04, 1:1 anhydrate/monohydrate slurry in MeOH/H2O): Anhydrate; Equilibrium Form ([7]; RH 15 %, Water Volume 5 %, Water Mole Fraction 0.11, 1:1 anhydrate/monohydrate slurry in MeOH/H2O): Monohydrate; Equilibrium Form ([7]; RH 26 %, Water Volume 10 %, Water Mole Fraction 0.20, 1:1 anhydrate/monohydrate slurry in MeOH/H2O): Monohydrate; Equilibrium Form ([7]; RH 43 %, Water Volume 20 %, Water Mole Fraction 0.36, 1:1 anhydrate/monohydrate slurry in MeOH/H2O): Monohydrate; Equilibrium Form ([7]; RH 66 %, Water Volume 40 %, Water Mole Fraction 0.60, 1:1 anhydrate/monohydrate slurry in MeOH/H2O): Monohydrate; Equilibrium Form ([7]; RH 80 %, Water Volume 60 %, Water Mole Fraction 0.77, 1:1 anhydrate/monohydrate slurry in MeOH/H2O): Monohydrate; Equilibrium Form ([7]; RH 91 %, Water Volume 80 %, Water Mole Fraction 0.90, 1:1 anhydrate/monohydrate slurry in MeOH/H2O): Monohydrate; Equilibrium Form ([7]; RH 95 %, Water Volume 90 %, Water Mole Fraction 0.95, 1:1 anhydrate/monohydrate slurry in MeOH/H2O): Monohydrate; Equilibrium Form ([7]; RH 100 %, Water Volume 100 %, Water Mole Fraction 1.00, 1:1 anhydrate/monohydrate slurry): Monohydrate
CS(=O)(=O)CCNCc1ccc(-c2ccc3ncnc(Nc4ccc(OCc5cccc(F)c5)c(Br)c4)c3c2)o1 [Example 12, (4-(3-Fluoro-benzyloxy)-3-bromophenyl)-(6-(5-((2-methanesulphonyl-ethylamino)-methyl)-furan-2 yl)quinazolin-4 yl)-amine ditosylate] | < 0.1 | < 0.1 | 1 to 10 | < 5 | < 5 | < 5 | 
CS(=O)(=O)CCNCc1ccc(-c2ccc3ncnc(Nc4ccc(OCc5cccc(F)c5)c(Cl)c4)c3c2)o1 [Example 10, N-{3-Chloro-4-[(3-f/uorobenzyl)oxy]phenyl}-6-[5-({[2-(methanesulphonyl)ethyl]amino}methyl)-2-furyl]-4-quinazolinamine ditosylate monohydrate] |  |  |  |  |  |  | RH at which the monohydrate becomes the thermodynamically stable form ([7]; remains stable up through 100% RH, slurry equilibration at 25°C): 7 - 15 % RH
CS(=O)(=O)CCNCc1ccc(-c2ccc3ncnc(Nc4ccc(OCc5cccc(F)c5)c(Cl)c4)c3c2)o1.Cl.Cl [di-HCl salt, N-{3-Chloro-4-[(3-fluorobenzyl)oxy]phenyl}-6-[5-({[2-(methanesulphonyl)ethyl]amino}methyl)-2-furyl]-4-quinazolinamine di-HCl salt] |  |  |  |  |  |  | water sorption [8]: sorbs very large amounts of water
